Assay results published in patent US7772241B2, “Variolin derivatives and their use as antitumor agents” (Pharma Mar S.A., priority 2001, dated 2010).
Where two headings read alike, the source gives them in different places.

Columns and labels:
IGROV-ET = experiment: Inhibition of cells growth by colorimetric (SRB) assay, IGROV-ET; conditions: for CC50: read-out: LC50 IGROV-ET, SRB assay, 48 hours exposure
Procedure, shortened: (§1)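 Human tumour cells in RPMI 1640 with 10% FBS were seeded at 5×10^3 cells/well, allowed to attach for 18 h, then exposed to samples at 10 to 10^−8 μg/ml for 48 h. Growth was measured by SRB staining after TCA fixation, with absorbance read at 490 nm in triplicate wells.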

DU-145 = experiment: Inhibition of cells growth by colorimetric (SRB) assay, DU-145; conditions: for CC50: read-out: LC50 DU-145, SRB assay, 48 hours exposure
Procedure, shortened: as §1

LNCaP = experiment: Inhibition of cells growth by colorimetric (SRB) assay, LNCaP
Procedure, shortened: as §1

LoVo = experiment: Inhibition of cells growth by colorimetric (SRB) assay, LoVo; conditions: for CC50: read-out: LC50 LOVO, SRB assay, 48 hours exposure
Procedure, shortened: as §1

SK-BR-3 = experiment: Inhibition of cells growth by colorimetric (SRB) assay, SK-BR-3; conditions: for CC50: read-out: LC50 SK-BR-3, SRB assay, 48 hours exposure
Excerpt: The finality of these assays is to interrupt the growth of a “in vitro” tumor cell culture by means a continued exhibition of the cells to the sample to be testing.
This form of the assay employs 96 well cell culture microplates of 9 mm diameter (Faircloth, 1988; Mosmann, 1983). Most of the cell lines are obtained from American Type Culture Collection (ATCC) derived from different human cancer types.
Cells are maintained in RPMI 1640 10% FBS, supplemented with 0.1 g/l penicillin and 0.1 g/l streptomycin sulphate and then incubated at 37° C., 5% CO2 and 98% humidity. For the experiments, cells were harvested from subconfluent cultures using trypsin and resuspended in fresh medium before plating.
Cells are seeded in 96 well microtiter plates, at 5×10^3 cells per well in aliquots of 195 μl medium, and they are allowed to attach to the plate surface by growing in drug free medium for 18 hours. Afterward, samples are added in aliquots of 5 μl in a ranging from 10 to 10^−8 μg/ml, dissolved in DMSO/EtOH/PBS (0.5:0.5:99). After 48 hours exposure, the antitumor effect are measured by the SRB methodology: cells are fixed by adding 50 μl of cold 50% (wt/vol) trichloroacetic acid (TCA) and incubating for 60 minutes at 4° C. Plates are washed with deionized water and dried. One hundred μl of SRB solution (0.4% wt/vol in 1% acetic acid) is added to each microtiter well and incubated for 10 minutes at room temperature. Unbound SRB is removed by washing with 1% acetic acid. Plates are air dried and bound stain is solubilized with Tris buffer. Optical densities are read on a automated spectrophotometric plate reader at a single wavelength of 490 nm.
The values for mean +/−SD of data from triplicate wells are calculated. Some parameters for cellular responses can be calculated: GI=growth inhibition, TGI=total growth inhibition (cytostatic effect) and LC=cell killing (cytotoxic effect).

SK-OV-3 = experiment: Inhibition of cells growth by colorimetric (SRB) assay, SK-OV-3; conditions: for CC50: read-out: LC50 SKOV-3, SRB assay, 48 hours exposure
Procedure, shortened: as §1

LoVo-Dox = experiment: Inhibition of cells growth by colorimetric (SRB) assay, LoVo-Dox; conditions: for GI50 / CC50: Homo sapiens, 48 h; for GI50: read-out: GI50 LOVO-DOX, SRB assay, 48 hours exposure; for CC50: read-out: LC50 LOVO-DOX, SRB assay, 48 hours exposure; for TGI LOVO-DOX: SRB assay, 48 hours exposure
Procedure, shortened: as §1

PANC-1 = experiment: Inhibition of cells growth by colorimetric (SRB) assay, PANC-1; conditions: for CC50: read-out: LC50 PANC-1, SRB assay, 48 hours exposure
Procedure, shortened: as §1

A-549 = experiment: Inhibition of cells growth by colorimetric (SRB) assay, A-549; conditions: for CC50: read-out: LC50 A-549, SRB assay, 48 hours exposure
Procedure, shortened: as §1

HT-29 = experiment: Inhibition of cells growth by colorimetric (SRB) assay, HT-29; conditions: for GI50 / CC50: Homo sapiens, HT-29, 48 h; for GI50: read-out: GI50 HT-29, SRB assay, 48 hours exposure; for CC50: read-out: LC50 HT-29, SRB assay, 48 hours exposure; for TGI HT-29: SRB assay, 48 hours exposure
Procedure, shortened: as §1

K-562 = experiment: Inhibition of cells growth by colorimetric (SRB) assay, K-562; conditions: for GI50 / CC50: Homo sapiens, K562, 48 h; for GI50: read-out: GI50 K-562, SRB assay, 48 hours exposure; for CC50: read-out: LC50 K-562, SRB assay, 48 hours exposure; for TGI K-562: SRB assay, 48 hours exposure
Procedure, shortened: as §1

IGROV-1 = experiment: Inhibition of cells growth by colorimetric (SRB) assay, IGROV-1
Procedure, shortened: as §1

SK-MEL-28 = experiment: Inhibition of cells growth by colorimetric (SRB) assay, SK-MEL-28; conditions: for CC50: read-out: LC50 MEL-28, SRB assay, 48 hours exposure
Procedure, shortened: as §1

[1] = Homo sapiens, 48 h, read-out: GI50 IGROV-ET, SRB assay, 48 hours exposure
[2] = Homo sapiens, DU-145, 48 h, read-out: GI50 DU-145, SRB assay, 48 hours exposure
[3] = Homo sapiens, LNCaP, 48 h, read-out: GI50 LN-caP, SRB assay, 48 hours exposure
[4] = Homo sapiens, LNCaP, 48 h, read-out: LC50 LN-caP, SRB assay, 48 hours exposure
[5] = Homo sapiens, LoVo, 48 h, read-out: GI50 LOVO, SRB assay, 48 hours exposure
[6] = Homo sapiens, SK-BR-3, 48 h, read-out: GI50 SK-BR-3, SRB assay, 48 hours exposure
[7] = Homo sapiens, SK-OV-3, 48 h, read-out: GI50 SKOV-3, SRB assay, 48 hours exposure
[8] = Homo sapiens, PANC-1, 48 h, read-out: GI50 PANC-1, SRB assay, 48 hours exposure
[9] = Homo sapiens, A549, 48 h, read-out: GI50 A-549, SRB assay, 48 hours exposure
[10] = Homo sapiens, IGROV-1, 48 h, read-out: GI50 IGROV, SRB assay, 48 hours exposure
[11] = Homo sapiens, IGROV-1, 48 h, read-out: LC50 IGROV, SRB assay, 48 hours exposure
[12] = Homo sapiens, SK-MEL-28, 48 h, read-out: GI50 MEL-28, SRB assay, 48 hours exposure

| Structure (SMILES) | CC50 (IGROV-ET; Homo sapiens, 48 h) [µM] | TGI IGROV-ET (IGROV-ET; SRB assay, 48 hours exposure) | CC50 (DU-145; Homo sapiens, DU-145, 48 h) [µM] | TGI DU-145 (DU-145; SRB assay, 48 hours exposure) | TGI LN-caP (LNCaP; SRB assay, 48 hours exposure) | CC50 (LoVo; Homo sapiens, LoVo, 48 h) [µM] | TGI LOVO (LoVo; SRB assay, 48 hours exposure) | CC50 (SK-BR-3; Homo sapiens, SK-BR-3, 48 h) [µM] | TGI SK-BR-3 (SK-BR-3; SRB assay, 48 hours exposure) | CC50 (SK-OV-3; Homo sapiens, SK-OV-3, 48 h) [µM] | TGI SKOV-3 (SK-OV-3; SRB assay, 48 hours exposure) | GI50 (LoVo-Dox) [µM] | CC50 (LoVo-Dox) [µM] | TGI LOVO-DOX (LoVo-Dox) | CC50 (PANC-1; Homo sapiens, PANC-1, 48 h) [µM] | TGI PANC-1 (PANC-1; SRB assay, 48 hours exposure) | CC50 (A-549; Homo sapiens, A549, 48 h) [µM] | TGI A-549 (A-549; SRB assay, 48 hours exposure) | GI50 (HT-29) [µM] | CC50 (HT-29) [µM] | further results |
| --- | --- | --- | --- | --- | --- | --- | --- | --- | --- | --- | --- | --- | --- | --- | --- | --- | --- | --- | --- | --- | --- |
| CSc1nccc(-c2c3cccnc3n3ccccc23)n1 [Compound 55] | ≥ 34.2 | 2.00E−05 | ≥ 34.2 | 3.38E−05 | 1.55E−05 | ≥ 34.2 | 3.42E−05 | ≥ 34.2 | 2.32E−05 | ≥ 34.2 | 2.09E−05 | 3.93 | 26.4 | 1.02E−05 | ≥ 34.2 | 2.91E−05 | ≥ 34.2 | 1.90E−05 | 13.2 | ≥ 34.2 | GI50 (IGROV-ET; [1]): 8.79 µM; GI50 (DU-145; [2]): 11.4 µM; GI50 (LNCaP; [3]): 6.84 µM; CC50 (LNCaP; [4]): ≥ 34.2 µM; GI50 (LoVo; [5]): 9.92 µM; GI50 (SK-BR-3; [6]): 8.82 µM; GI50 (SK-OV-3; [7]): 7.73 µM; GI50 (PANC-1; [8]): 8.79 µM; GI50 (A-549; [9]): 7.29 µM; TGI HT-29 (HT-29): 3.42E−05; GI50 (K-562): 9.71 µM; CC50 (K-562): ≥ 34.2 µM; TGI K-562 (K-562): 1.83E−05; GI50 (IGROV-1; [10]): 7.42 µM; CC50 (IGROV-1; [11]): ≥ 34.2 µM; TGI IGROV (IGROV-1; SRB assay, 48 hours exposure): 1.53E−05; GI50 (SK-MEL-28; [12]): 11.6 µM; CC50 (SK-MEL-28; Homo sapiens, SK-MEL-28, 48 h): ≥ 34.2 µM; TGI MEL-28 (SK-MEL-28; SRB assay, 48 hours exposure): 3.20E−05 |
| COc1nccc(-c2c3c(O)ccnc3n3c(N)nccc23)n1 [Compound 105] | 32.4 | 2.23E−05 | 32.4 | 3.24E−05 | 1.75E−05 | 32.4 | 3.24E−05 | 32.4 | 1.26E−05 | 32.4 | 2.91E−05 | 21.9 | 32.4 | 3.24E−05 | 32.4 | 3.24E−05 | 32.4 | 3.24E−05 | 32.4 | 32.4 | GI50 (IGROV-ET; [1]): 8.17 µM; GI50 (DU-145; [2]): 14.2 µM; GI50 (LNCaP; [3]): 5.48 µM; CC50 (LNCaP; [4]): 32.4 µM; GI50 (LoVo; [5]): 14.3 µM; GI50 (SK-BR-3; [6]): 2.42 µM; GI50 (SK-OV-3; [7]): 8.14 µM; GI50 (PANC-1; [8]): 11.8 µM; GI50 (A-549; [9]): 7.49 µM; TGI HT-29 (HT-29): 3.24E−05; GI50 (K-562): 12.8 µM; CC50 (K-562): 32.4 µM; TGI K-562 (K-562): 2.93E−05; GI50 (IGROV-1; [10]): 6.26 µM; CC50 (IGROV-1; [11]): 27.5 µM; TGI IGROV (IGROV-1; SRB assay, 48 hours exposure): 1.31E−05; GI50 (SK-MEL-28; [12]): 13.8 µM; CC50 (SK-MEL-28; Homo sapiens, SK-MEL-28, 48 h): 32.4 µM; TGI MEL-28 (SK-MEL-28; SRB assay, 48 hours exposure): 3.24E−05 |
| Nc1nccc2c(-c3ccncn3)c3c(O)ccnc3n12 [Compound 100] | 22.9 | 2.33E−06 | ≥ 25.5 | 5.25E−06 | 3.29E−06 | ≥ 25.5 | 5.12E−06 | 10.6 | 1.52E−06 | ≥ 25.5 | 9.84E−06 | 1.18 | ≥ 25.5 | 1.30E−05 | ≥ 25.5 | 2.55E−05 | ≥ 25.5 | 2.63E−06 | 14.9 | ≥ 25.5 | GI50 (IGROV-ET; read-out: GI50 IGROV-ET, SRB assay, 48 hours exposure): 0.683 µM; GI50 (DU-145; read-out: GI50 DU-145, SRB assay, 48 hours exposure): 0.739 µM; GI50 (LNCaP; read-out: GI50 LN-caP, SRB assay, 48 hours exposure): 1.05 µM; CC50 (LNCaP; read-out: LC50 LN-caP, SRB assay, 48 hours exposure): 10.9 µM; GI50 (LoVo; read-out: GI50 LOVO, SRB assay, 48 hours exposure): 0.877 µM; GI50 (SK-BR-3; read-out: GI50 SK-BR-3, SRB assay, 48 hours exposure): 0.464 µM; GI50 (SK-OV-3; read-out: GI50 SKOV-3, SRB assay, 48 hours exposure): 1.74 µM; GI50 (PANC-1; read-out: GI50 PANC-1, SRB assay, 48 hours exposure): 4.92 µM; GI50 (A-549; read-out: GI50 A-549, SRB assay, 48 hours exposure): 0.678 µM; TGI HT-29 (HT-29): 2.55E−05; GI50 (K-562): 6.78 µM; CC50 (K-562): ≥ 25.5 µM; TGI K-562 (K-562): 1.49E−05; TGI IGROV (IGROV-1; SRB assay, 48 hours exposure): 4.69E−06; GI50 (IGROV-1; read-out: GI50 IGROV, SRB assay, 48 hours exposure): 1.4 µM; CC50 (IGROV-1; read-out: LC50 IGROV, SRB assay, 48 hours exposure): 13.2 µM; CC50 (SK-MEL-28; Homo sapiens, SK-MEL-28, 48 h): ≥ 25.5 µM; TGI MEL-28 (SK-MEL-28; SRB assay, 48 hours exposure): 8.08E−06; GI50 (SK-MEL-28; read-out: GI50 MEL-28, SRB assay, 48 hours exposure): 1.32 µM |
